Assay results as given in PubChem BioAssay (NCI).
Several values for one entry are separate records, joined by “and”; a condition that tells them apart may be missing. Identical values can stand only once.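 48-hour exposure; five concentrations; linearly interpolated endpoints. Abbreviation: GI50, concentration required for 50% inhibition of growth. At the TGI there is no net growth.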

Legend:
Assay in all cases: DTP human tumour cell line panel, 48 h
HCT-116 colon = tested on: HCT-116 colon
OVCAR-5 ovarian = tested on: OVCAR-5 ovarian
RPMI-8226 leukemia = tested on: RPMI-8226 leukemia
SK-MEL-5 melanoma = tested on: SK-MEL-5 melanoma
SNB-19 CNS = tested on: SNB-19 CNS
SW-620 colon = tested on: SW-620 colon
TK-10 renal = tested on: TK-10 renal
UO-31 renal = tested on: UO-31 renal
SK-OV-3 ovarian = tested on: SK-OV-3 ovarian
NCI/ADR-RES ovarian = tested on: NCI/ADR-RES ovarian

## CC(C)(C)[SiH]12(OC(C(F)(F)F)(C(F)(F)F)c3ccccc31)OC(C(F)(F)F)(C(F)(F)F)c1ccccc12
HCT-116 colon
  TGI: 13 µM
OVCAR-5 ovarian
  TGI: 6.25 µM
RPMI-8226 leukemia
  TGI: > 100 µM
SK-MEL-5 melanoma
  TGI: 22.1 µM
SNB-19 CNS
  TGI: 13.1 µM
SW-620 colon
  TGI: 18.1 µM
TK-10 renal
  TGI: 26.3 µM
UO-31 renal
  TGI: 19.2 µM

## COC(=O)c1cc2c3ccccc3n(C(C)=O)c2cn1
HCT-116 colon
  TGI: > 100 µM
OVCAR-5 ovarian
  TGI: > 100 µM
RPMI-8226 leukemia
  TGI: > 100 µM
SK-MEL-5 melanoma
  TGI: > 100 µM
SK-OV-3 ovarian
  TGI: > 100 µM
SNB-19 CNS
  TGI: > 100 µM
SW-620 colon
  TGI: > 100 µM
TK-10 renal
  TGI: > 100 µM
UO-31 renal
  TGI: > 100 µM

## COC(=O)C1=C(c2ccc3c(c2)OCO3)O[C@H](c2cc(OC)c(OC)c(OC)c2)[C@H]1COC(C)=O
HCT-116 colon
  TGI: 19.6 µM
OVCAR-5 ovarian
  TGI: > 100 µM
RPMI-8226 leukemia
  TGI: > 100 µM
SK-MEL-5 melanoma
  TGI: 7.83 µM
SK-OV-3 ovarian
  TGI: 5.94 µM
SW-620 colon
  TGI: > 100 µM
TK-10 renal
  TGI: > 100 µM
UO-31 renal
  TGI: 31.6 µM

## CCCCc1c(OC)cc(O)c2c1C(=O)c1[nH]c(C(=O)O)c(O)c(=O)c1C2=O
HCT-116 colon
  TGI: > 100 µM
NCI/ADR-RES ovarian
  TGI: 93.7 µM
OVCAR-5 ovarian
  TGI: 65.3 µM
RPMI-8226 leukemia
  TGI: > 100 µM
SK-OV-3 ovarian
  TGI: 18.6 µM
SNB-19 CNS
  TGI: 15.1 µM
SW-620 colon
  TGI: > 100 µM
TK-10 renal
  TGI: > 100 µM
UO-31 renal
  TGI: 13.8 µM

## COc1ccc(NC(=O)CCc2cc(-c3ccc(O)c(OC)c3)nc(NC#N)n2)cc1
HCT-116 colon
  TGI: > 100 µM
OVCAR-5 ovarian
  TGI: > 100 µM
SK-OV-3 ovarian
  TGI: > 100 µM
SNB-19 CNS
  TGI: > 100 µM
SW-620 colon
  TGI: > 100 µM
UO-31 renal
  TGI: > 100 µM

## Cc1cc(Br)cc(C)c1NC(=O)C(=O)C(C(=O)c1ccc2ccccc2c1)C1OC(=O)c2ccccc21 (configuration not stated)
HCT-116 colon
  TGI: 29.4 µM
OVCAR-5 ovarian
  TGI: 19.7 µM
RPMI-8226 leukemia
  TGI: > 80.5 µM
SK-MEL-5 melanoma
  TGI: 23.8 µM
SK-OV-3 ovarian
  TGI: > 100 µM
SNB-19 CNS
  TGI: 29.3 µM
SW-620 colon
  TGI: 28.1 µM
TK-10 renal
  TGI: 36.9 µM
UO-31 renal
  TGI: 30.3 µM

## CSc1nc2c(nc(C)c(=O)n2C2OCC(OC(C)=O)C(OC(C)=O)C2OC(C)=O)c(=O)[nH]1 (configuration not stated)
HCT-116 colon
  TGI: > 100 µM
OVCAR-5 ovarian
  TGI: > 100 µM
RPMI-8226 leukemia
  TGI: > 100 µM
SK-MEL-5 melanoma
  TGI: > 100 µM
SK-OV-3 ovarian
  TGI: > 100 µM
SNB-19 CNS
  TGI: > 100 µM
SW-620 colon
  TGI: > 100 µM
TK-10 renal
  TGI: > 100 µM
UO-31 renal
  TGI: > 100 µM

## O=C(Nc1nc2ncn(CCI)c2c(=O)[nH]1)c1ccccc1
HCT-116 colon
  TGI: > 100 µM
OVCAR-5 ovarian
  TGI: > 100 µM
RPMI-8226 leukemia
  TGI: > 100 µM
SK-MEL-5 melanoma
  TGI: > 100 µM
SK-OV-3 ovarian
  TGI: 90.5 µM
SNB-19 CNS
  TGI: > 100 µM
SW-620 colon
  TGI: > 100 µM
TK-10 renal
  TGI: > 100 µM
UO-31 renal
  TGI: > 100 µM

## O=[N+]([O-])c1nccn1CC(O)c1ccc(F)cc1 (configuration not stated)
OVCAR-5 ovarian
  TGI: > 100 µM
RPMI-8226 leukemia
  TGI: > 100 µM
SK-MEL-5 melanoma
  TGI: > 100 µM
SK-OV-3 ovarian
  TGI: > 100 µM
SNB-19 CNS
  TGI: > 100 µM
SW-620 colon
  TGI: > 100 µM
TK-10 renal
  TGI: > 100 µM
UO-31 renal
  TGI: > 100 µM

## O=S(=O)([O-])c1ccc2c(c1)-c1nc-2nc2[n-]c(nc3nc(nc4[n-]c(n1)c1ccc(S(=O)(=O)[O-])cc41)-c1cc(S(=O)(=O)[O-])ccc1-3)c1ccc(S(=O)(=O)[O-])cc21.[Cu+2].[Na+]
HCT-116 colon
  GI50: 15.8 µM
  TGI: > 100 µM
OVCAR-5 ovarian
  GI50: > 100 µM
  TGI: > 100 µM
RPMI-8226 leukemia
  GI50: > 56.4 µM
  TGI: > 74.3 µM
SK-MEL-5 melanoma
  GI50: > 100 µM
  TGI: > 100 µM
SK-OV-3 ovarian
  GI50: 97.9 µM
  TGI: > 100 µM
SNB-19 CNS
  GI50: > 68.4 µM
  TGI: > 100 µM
SW-620 colon
  GI50: 10.8 µM
  TGI: > 71 µM
TK-10 renal
  GI50: > 55.9 µM
  TGI: > 100 µM
UO-31 renal
  GI50: > 39.6 µM
  TGI: > 93.9 µM

## Cc1ccc(S(=O)(=O)NCC2CCCCC2=O)cc1 (configuration not stated)
HCT-116 colon
  TGI: > 100 µM
OVCAR-5 ovarian
  TGI: > 100 µM
RPMI-8226 leukemia
  TGI: > 100 µM
SK-MEL-5 melanoma
  TGI: > 100 µM
SK-OV-3 ovarian
  TGI: > 100 µM
SNB-19 CNS
  TGI: > 100 µM
SW-620 colon
  TGI: > 100 µM
TK-10 renal
  TGI: > 100 µM
UO-31 renal
  TGI: > 100 µM

## C=C(C=O)[C@@H]1C2OC(=O)C(=C)[C@@H]2CC(O)[C@@]1(C)CC (some centres not stated)
HCT-116 colon
  TGI: 14.5 µM
OVCAR-5 ovarian
  TGI: 32 µM
RPMI-8226 leukemia
  TGI: 10 µM
SK-MEL-5 melanoma
  TGI: 19.8 µM
SK-OV-3 ovarian
  TGI: 99.9 µM
SNB-19 CNS
  TGI: > 89.7 µM
SW-620 colon
  TGI: 11.8 µM
TK-10 renal
  TGI: 29.9 µM
UO-31 renal
  TGI: 45.8 µM

## O=C1CN=C(C[N+](=O)[O-])c2ccccc21
HCT-116 colon
  TGI: > 100 µM
OVCAR-5 ovarian
  TGI: > 100 µM
RPMI-8226 leukemia
  TGI: > 100 µM
SK-MEL-5 melanoma
  TGI: > 100 µM
SK-OV-3 ovarian
  TGI: > 100 µM
SNB-19 CNS
  TGI: > 100 µM
SW-620 colon
  TGI: > 100 µM
UO-31 renal
  TGI: > 100 µM

## CCCCOC(=O)C1C(c2ccc(Cl)cc2)NC(c2ccc(Cl)cc2)C(C(=O)OCCCC)S1(=O)=O (configuration not stated)
OVCAR-5 ovarian
  TGI: > 100 µM
RPMI-8226 leukemia
  TGI: > 100 µM
SK-MEL-5 melanoma
  TGI: > 100 µM
SK-OV-3 ovarian
  TGI: > 100 µM
SNB-19 CNS
  TGI: > 100 µM
SW-620 colon
  TGI: > 100 µM
TK-10 renal
  TGI: > 100 µM
UO-31 renal
  TGI: > 100 µM

## CC(C)(C)OC(=O)NCC(=O)OCc1ccccc1
HCT-116 colon
  TGI: > 100 µM
OVCAR-5 ovarian
  TGI: > 100 µM
SK-OV-3 ovarian
  TGI: > 100 µM
SNB-19 CNS
  TGI: > 100 µM
SW-620 colon
  TGI: > 100 µM
TK-10 renal
  TGI: > 100 µM
UO-31 renal
  TGI: > 100 µM

## O=S(O)CCCCSSCC(O)C(O)CSSCCCCS(=O)O (configuration not stated)
OVCAR-5 ovarian
  TGI: > 100 µM
RPMI-8226 leukemia
  TGI: 46.4 µM and 46.1 µM
SK-MEL-5 melanoma
  GI50: 4.97 µM and 11.2 µM
  TGI: 18.1 µM and 26 µM
SK-OV-3 ovarian
  TGI: > 100 µM
SNB-19 CNS
  TGI: > 100 µM
SW-620 colon
  TGI: 47.6 µM and 61.8 µM
TK-10 renal
  TGI: > 100 µM
UO-31 renal
  TGI: 67.3 µM and 79.5 µM

## O=C1c2ccccc2C(=O)C1(Cl)C1(S(=O)(=O)O)c2ccccc2-c2ccccc21
HCT-116 colon
  TGI: > 100 µM
OVCAR-5 ovarian
  TGI: > 100 µM
RPMI-8226 leukemia
  TGI: > 100 µM
SK-MEL-5 melanoma
  TGI: > 100 µM
SK-OV-3 ovarian
  TGI: > 100 µM
SW-620 colon
  TGI: > 100 µM
TK-10 renal
  TGI: > 100 µM
UO-31 renal
  TGI: > 100 µM

## CS(=O)(=O)N/N=C/CN1C(=O)c2ccccc2C1=O
HCT-116 colon
  TGI: > 100 µM
OVCAR-5 ovarian
  TGI: > 100 µM
RPMI-8226 leukemia
  TGI: > 100 µM
SK-MEL-5 melanoma
  TGI: > 100 µM
SK-OV-3 ovarian
  TGI: > 100 µM
SNB-19 CNS
  TGI: > 100 µM
SW-620 colon
  TGI: > 100 µM
TK-10 renal
  TGI: > 100 µM
UO-31 renal
  TGI: > 100 µM

## C=CC1CC12C(=O)C1OC2(C)C2C(=O)c3cc4ccccc4cc3C(=O)C12 (configuration not stated)
HCT-116 colon
  GI50: 33.5 µM
  TGI: > 100 µM
NCI/ADR-RES ovarian
  GI50: 26.9 µM
  TGI: 95.4 µM
OVCAR-5 ovarian
  GI50: 61.2 µM
  TGI: > 100 µM
SK-OV-3 ovarian
  GI50: 48.1 µM
  TGI: > 100 µM
SNB-19 CNS
  GI50: 56.7 µM
  TGI: > 100 µM
TK-10 renal
  GI50: 31.8 µM
  TGI: 97.1 µM
UO-31 renal
  GI50: 53.3 µM
  TGI: > 100 µM

## CC(=O)O.CC(=O)O.CC(=O)O.CC(=O)O.CC(=O)O.CC(=O)O.O.[Ti].[Ti]
HCT-116 colon
  GI50: > 100 µM
  TGI: > 100 µM
OVCAR-5 ovarian
  GI50: > 100 µM
  TGI: > 100 µM
RPMI-8226 leukemia
  GI50: > 100 µM
  TGI: > 100 µM
SK-MEL-5 melanoma
  GI50: > 100 µM
  TGI: > 100 µM
SNB-19 CNS
  GI50: 65.6 µM
  TGI: > 100 µM
SW-620 colon
  GI50: > 100 µM
  TGI: > 100 µM
TK-10 renal
  GI50: > 100 µM
  TGI: > 100 µM
UO-31 renal
  GI50: > 100 µM
  TGI: > 100 µM

## C=C(CCCCC)CN1CCCC1[C@@](C)(O)CC(=O)OCC (some centres not stated)
HCT-116 colon
  TGI: > 100 µM
OVCAR-5 ovarian
  TGI: > 100 µM
RPMI-8226 leukemia
  TGI: > 100 µM
SK-MEL-5 melanoma
  TGI: > 100 µM
SK-OV-3 ovarian
  TGI: > 100 µM
SNB-19 CNS
  TGI: > 100 µM
SW-620 colon
  TGI: > 100 µM
TK-10 renal
  TGI: > 100 µM
UO-31 renal
  TGI: > 100 µM

## CNC(=S)NC1CCCCC1NC(=S)NC (configuration not stated)
HCT-116 colon
  TGI: > 100 µM
OVCAR-5 ovarian
  TGI: > 100 µM
RPMI-8226 leukemia
  TGI: > 100 µM
SK-MEL-5 melanoma
  TGI: > 100 µM
SK-OV-3 ovarian
  TGI: > 100 µM
SNB-19 CNS
  TGI: > 100 µM
SW-620 colon
  TGI: > 100 µM
UO-31 renal
  TGI: > 100 µM
